Measurements as given in patent publication US11234957B2, “Process for preparing water soluble forskolin” (SciPharm S.à.r.l., priority 2017, dated 2022).
Read-outs that look alike come from different tables or passages of the source.

Tests used:
adenylyl cyclase = test: Cell culture test - cAMP assay; assay type: cell-based; details: versus forskolin dissolved in DMSO; FIG. 4 and summary
Protocol: The method was performed at the Institute of Pharmacology, Medical University […] of Vienna, Prof. Michael Freissmuth. The forskolin-CD complex was compared with an established method, where forskolin is dissolved and diluted in DMSO. The method has been described previously (Hussain F, et al., BMC Pharmacology 11 (2013), Suppl 2, A6) and is a test platform for the assessment of the chemical induction of stem cells.
Also, the lack of DMSO, which is considered to be a PDE inhibitor (see above), had no […] effect on the results based on preliminary theoretical and practical aspects. The following batches were tested in aliquot molar concentrations as an activator of adenylyl cyclase: […]

[1] = Maximum solubility of forskolin in aqueous hydroxypropyl-cyclodextrin solutions (Laurenza et al., 1987); assay type: physicochemical
From the text: Aqueous solutions of forskolin had also been produced by dissolving forskolin in solutions of hydroxypropyl-γ-cyclodextrin.

[2] = cited from earlier work

Compound | activation of adenylyl cyclase (adenylyl cyclase) | increase of solubility ([1]; in 40% (w/v) hydroxypropyl-ß-cyclodextrin) | increase of solubility ([1]; in 40% (w/v) hydroxypropyl-γ-cyclodextrin) | Maximum solubility of forskolin ([2]; in 40% (w/v) aqueous solution of hydroxypropyl-ß-cyclodextrin) [mM] | Maximum solubility of forskolin ([2]; in 40% (w/v) aqueous solution of hydroxypropyl-γ-cyclodextrin) [mM]
COC(=O)[C@@H]1C[C@H](OC(C)=O)C(=O)[C@H]2[C@@]1(C)CC[C@H]1C(=O)O[C@H](c3ccoc3)C[C@]21C [salvinorin A] | Inactive |  |  |  | 
COC(=O)[C@@H]1C[C@H](O)C(=O)[C@H]2[C@@]1(C)CC[C@H]1C(=O)O[C@H](c3ccoc3)C[C@]21C [salvinorin B] | Inactive |  |  |  | 
C=C[C@@]1(C)CC(=O)[C@]2(O)[C@@]3(C)[C@@H](O)CCC(C)(C)[C@@H]3[C@H](O)[C@H](OC(C)=O)[C@@]2(C)O1 [forskolin, 7-beta-acetoxy-8,13-epoxy-1-alpha, 6-beta, 9-alpha-trihydroxylabd-14-en-11-one] |  | approx. 16 fold | approx. 65 fold | 2.5 | 9.8
